In article PMC6680226, “Peptoid Efficacy against Polymicrobial Biofilms Determined by Using Propidium Monoazide‐Modified Quantitative PCR” (Chembiochem, 2016):
“Also recorded” adds a separate entry of the source. Read-outs that look alike come from different tables or passages of the source.

What was measured:
HaCaT [1] = system: HaCaT
Description: (§8) Peptoid cytotoxicity studies: All 18 peptoids were tested for cytotoxicity against HepG2 epithelial (Sigma–Aldrich) and HaCaT keratinocyte (ThermoFisher) cell lines, Cytotoxicity analyses were performed in Costar 96‐well plates (Thermo Fisher Scientific) with alamarBlue (Invitrogen/Thermo Fisher Scientific) for cell viability detection as described by the manufacturer. HepG2 and HaCaT cells were grown at 37 °C under CO2 (5 %) in DMEM (high glucose) supplemented with heat‐inactivated foetal bovine sera (FBS, 10 %; Biosera, Uckfield, UK) and penicillin/streptomycin (1 %). Cells were counted in a Neubauer Improved Haemocytometer. HepG2 or HaCaT cells were seeded 24 h prior to treatment in 96‐well plates (2×10^4 cells per well in 100 μL). After 24 h, cells were incubated in triplicate with a dilution series of compound (2–100 μM from 5 mM stock solutions in DMSO) in the medium (50 μL) for 1 h. An aliquot (40 μL) was removed from each well, before the addition of medium (90 μL) followed by incubation for 24 h (37 °C, 5 % CO2). Then, alamarBlue (10 μL) was added to each well before incubation (2 h for Hep G2, 1 h for HaCaT) prior to assessing cell viability in a fluorescent plate reader (Biotek, Winooski, VT; λ ex=560 nm, λ em=600 nm). All data were measured in triplicate on a minimum of two occasions.
(§9) Toxicity was determined using an alamarBlue® cytotoxicity assay.

HepG2 [2] = system: HepG2
Description: as §8, §9

[3] = system: C. albicans (NCTC 3179) biofilm; assay: Crystal violet assay, C. albicans monospecies biofilm; format: cell-based, Candida albicans; details: peptoid 100 μM, 24 h treatment of 4 h biofilm; n=3
Description: (§1) Microorganism strains and growth conditions: C. albicans (NCTC 3179) was subcultured aerobically on Sabouraud agar plates, prepared by using Sabouraud dextrose powder and agar (Oxoid, ThermoFisher) and propagated in yeast peptone dextrose broth. E. coli (ATCC 29522) and S. aureus (NCTC 6571) were grown on blood agar plates (Fanin, Dublin, Ireland) and propagated in brain heart infusion (BHI) broth (Oxoid, ThermoFisher).
(§2) Preparation and treatment of single‐species biofilms: Overnight cultures of C. albicans were washed and resuspended (1.0×10^6 cells per mL) in RPMI‐1640 (Sigma–Aldrich). Overnight cultures of S. aureus or E. coli were washed and resuspended (5.0×10^6 cells per mL) in BHI broth. Samples (100 μL) were added to microtitre plate wells (Thermo Fisher Scientific), and a biofilm was allowed to form for 4 h. Wells were washed with PBS (3×200 μL) to facilitate removal of planktonic cells, and the biofilms were then treated with 1–18 (100 μM in the appropriate medium). Plates were incubated for a further 24 h to allow biofilm maturation. After removal of planktonic cells by washing, biofilms were quantified by the crystal violet assay or by PMA‐qPCR.
(§3) Biofilm quantification by crystal violet assay: Washed biofilms were fixed with methanol (100 μL) for 10 min. Following removal of methanol, the wells were air dried and stained with crystal violet solution (Clin‐Tech, Guildford, UK) for 20 min at room temperature. Excess stain was removed by washing, then the plate was air‐dried and bound crystal violet was re‐solubilised in acetic acid (33 %, 160 μL) prior to reading at 570 nm in a GENios microtitre plate reader (Tecan, Zürich, Switzerland).

[4] = system: S. aureus (NCTC 6571) biofilm; assay: Crystal violet assay, S. aureus monospecies biofilm; format: cell-based, Staphylococcus aureus; details: peptoid 100 μM, 24 h treatment of 4 h biofilm; n=3
Description: as §1, §2, §3

[5] = system: E. coli (ATCC 29522) biofilm; assay: Crystal violet assay, E. coli monospecies biofilm; format: cell-based, Escherichia coli; details: peptoid 100 μM, 24 h treatment of 4 h biofilm; n=3
Description: as §1, §2, §3

[6] = system: C. albicans monospecies biofilm; assay: PMA-qPCR viable cell number, C. albicans monospecies biofilm; format: cell-based, Candida albicans; details: peptoid 100 μM, 24 h; n=3
Description: as §2
(§4) Biofilm quantification by PMA‐modified qPCR: In order to determine the bactericidal and fungicidal activity of peptoids against single‐species and polymicrobial biofilms, the biofilms were detached from the microtitre plate wells prior to quantification. The wells were washed as above, then BHI broth (100 μL) was added and the plate was sealed. Biofilm detachment was achieved by sonication for 5 min in an ultrasonic bath (Dawe, Hayes, Middlesex, UK). The remaining cells were then collected in BHI (80 μL). […]
(§5) Generation of standard curves for PMA‐qPCR: For quantification of C. albicans, S. aureus and E. coli in single‐species and polymicrobial biofilms, DNA standards were prepared by extraction of DNA from planktonic organisms with the microLYSIS‐Plus kit and purification with a DNeasy kit (Qiagen). DNA standards (10^1–10^6 cells) were used in PMA‐qPCR assays to generate standard curves from which the numbers of living organisms within the biofilms could be determined.

[7] = system: S. aureus monospecies biofilm; assay: PMA-qPCR viable cell number, S. aureus monospecies biofilm; format: cell-based, Staphylococcus aureus; details: peptoid 100 μM, 24 h; n=3
Description: as §2
as §4, with “sealed.” for “sealed. Biofilm detachment was achieved by sonication for 5 min in an ultrasonic bath (Dawe, Hayes, Middlesex, UK). The remaining cells were then collected in BHI (80 μL).”
(§6) Generation of standard curves for PMA‐qPCR: For quantification of C. albicans, S. aureus and E. coli in single‐species and polymicrobial biofilms, DNA standards were prepared by extraction of DNA from planktonic organisms with the microLYSIS‐Plus kit and purification with a DNeasy kit (Qiagen). […]

[8] = system: E. coli monospecies biofilm; assay: PMA-qPCR viable cell number, E. coli monospecies biofilm; format: cell-based, Escherichia coli; details: peptoid 100 μM, 24 h; n=3
Description: as §2, §4, §5

[9] = system: C. albicans in polymicrobial biofilm with S. aureus; assay: PMA-qPCR, C. albicans within C. albicans-S. aureus polymicrobial biofilm; format: cell-based, Candida albicans; details: for Reduction in C. albicans cell number in mixed biofilm with S. aureus (PMA-qPCR): peptoid 100 μM, 24 h, n=3
Description: (§7) Preparation and treatment of polymicrobial biofilms: Overnight cultures of C. albicans were prepared in microtitre plates as above, and allowed to adhere for 4 h to facilitate initial biofilm formation. Planktonic C. albicans cells were removed as above before the addition of S. aureus or E. coli (100 μL, 5.0×10^6 cells per mL). Bacteria were allowed to adhere to the C. albicans biofilms for 4 h to facilitate polymicrobial biofilm formation. Following a washing step, the biofilms were then treated with peptoid (10–100 μM), and incubated for a further 24 h to allow biofilm maturation. Wells were washed as above, and the polymicrobial biofilms were quantified by PMA‐modified qPCR.
as §4, §5

[10] = system: S. aureus in polymicrobial biofilm with C. albicans; assay: PMA-qPCR, S. aureus within C. albicans-S. aureus polymicrobial biofilm; format: cell-based, Staphylococcus aureus; details: for Reduction of cell numbers of S. aureus in mixed-species biofilm: peptoid 10 μM
Description: as §7
Biofilm quantification by PMA‐modified qPCR: In order to determine the bactericidal and fungicidal activity of peptoids against single‐species and polymicrobial biofilms, the biofilms were detached from the microtitre plate wells prior to quantification. The wells were washed as above, then BHI broth (100 μL) was added and the plate was sealed. Biofilm detachment was achieved by sonication for 5 min in an ultrasonic bath (Dawe, Hayes, Middlesex, UK). The remaining cells were then collected in BHI (80 μL). PMA (20 μL, 2 mM in broth;47 Biotium, Fremont, CA) was added to the biofilm suspensions […] and incubated (37 °C, 5 min) prior to photoactivation with a broad‐spectrum LED flood light (60 LED, 0.1 W) placed 15 cm from the tubes (mixed by inversion during the 20 min photoactivation step).48 DNA was extracted by using a microLYSIS‐Plus kit (Microzone, Haywards Heath, UK), and qPCR was performed in a Mx3005P qPCR System (Agilent Technologies).49, 50, 51 See the Tables in the Supporting Information.
as §5

[11] = system: C. albicans in polymicrobial biofilm with E. coli; assay: PMA-qPCR, C. albicans within C. albicans-E. coli polymicrobial biofilm; format: cell-based, Candida albicans
Description: as §7
as §4, with “sealed.” for “sealed. Biofilm detachment was achieved by sonication for 5 min in an ultrasonic bath (Dawe, Hayes, Middlesex, UK). The remaining cells were then collected in BHI (80 μL).”
as §6

[12] = system: E. coli in polymicrobial biofilm with C. albicans; assay: PMA-qPCR, E. coli within C. albicans-E. coli polymicrobial biofilm; format: cell-based, Escherichia coli
Description: as §7
as §4, with “sealed.” for “sealed. Biofilm detachment was achieved by sonication for 5 min in an ultrasonic bath (Dawe, Hayes, Middlesex, UK). The remaining cells were then collected in BHI (80 μL).”
as §6

HepG2 [13] = assay: alamarBlue cytotoxicity assay, HepG2 cells; details: for ED50 HepG2: alamarBlue viability, 2-100 μM from DMSO stock, 1 h with compound then 24 h incubation at 37 °C, fluorescence, triplicate on a minimum of two occasions; for Toxicity to HepG2 cells (in words): alamarBlue, up to 100 μM
Description: as §8, §9

HaCaT [14] = assay: alamarBlue cytotoxicity assay, HaCaT keratinocytes; details: for ED50 HaCaT: alamarBlue viability, 2-100 μM from DMSO stock, 1 h with compound then 24 h incubation at 37 °C, fluorescence, triplicate on a minimum of two occasions; for Toxicity to HaCaT cells (in words): alamarBlue, up to 100 μM
Description: as §8, §9

trypsin = format: in vitro ADME; details: trypsin 0.5 μg/mL, Tris·HCl 50 mM pH 7.8 with CaCl2 9 mM, 24 h; MALDI-TOF MS read-out
Description: Proteolytic stability studies: Peptoid stability was confirmed by comparing the tryptic digestion of 7 with LL‐37 (Innovagen AB, Lund, Sweden). Stock solutions (5 mg mL^−1) of 7 and LL‐37 were prepared, and samples (7.5 μL) were incubated with trypsin (0.5 μg mL^−1) and incubation buffer (37.5 μL, Tris⋅HCl (50 mM, pH 7.8) containing CaCl2 (9 mM)). After 0 h (for mass spectrometric verification) or 24 h, the reaction mixture was acidified by addition of TFA (10 %, 50 μL) to denature the enzyme and stop enzyme activity. The samples were air‐dried and then reconstituted in acetonitrile/water/TFA (50 μL, 40:59.5:0.5, v/v/v), and an aliquot (1 μL) was placed onto a stainless steel MALDI target. Samples were covered immediately with matrix (1 μL, α‐cyano‐4‐hydroxycinnamic acid (53 mM in acetonitrile/water/TFA, 70:29.98:0.02, v/v/v)). MALDI‐TOF MS was performed on a linear TOF Voyager DE‐mass spectrometer (PerSeptive Biosystems, Farmingham, MA, USA). The samples were analysed in positive detection mode, and internal mass calibration with known standards established the mass accuracy to ±0.1 %. Fifty laser scans were averaged for each sample, and variable laser intensity was used to ensure the most representative mass spectra for the wells.
4. Proteolytic Stability Study […]

Molecule | Efficacy against C. albicans monospecies biofilm (biomass, crystal violet) [3] | Efficacy against S. aureus monospecies biofilm (biomass, crystal violet) [4] | Efficacy against E. coli monospecies biofilm (biomass, crystal violet) [5] | Reduction in viable cell number, C. albicans monospecies biofilm (PMA-qPCR) [6] | Reduction in viable cell number, E. coli monospecies biofilm (PMA-qPCR) [8] | Reduction in C. albicans cell number in mixed biofilm with S. aureus (PMA-qPCR) [9] | Reduction of cell numbers of S. aureus in mixed-species biofilm ([10]; 24 h, PMA-qPCR) [%] | ED50 HepG2 (HepG2 [13]) [µM] | Toxicity to HepG2 cells (in words) (HepG2 [13]) | ED50 HaCaT (HaCaT [14]) [µM] | Toxicity to HaCaT cells (in words) (HaCaT [14]) | other results
(NLysNspeNspe)4 [Peptoid 4] |  |  |  |  |  |  |  |  |  |  |  | ED50 HaCaT (HaCaT [1]): 20 ± 1 µM; ED50 HepG2 (HepG2 [2]): 29 ± 1 µM
(NahNspeNspe)3 [Peptoid 17] | amongst the most efficacious | amongst the most efficacious | amongst the most efficacious | still caused a significant reduction in the fungal biofilm | the most effective | less susceptible | ~100 | > 100 | negligible toxicity | > 100 | negligible toxicity | Reduction in viable cell number, S. aureus monospecies biofilm (PMA-qPCR) [7]: approximately two orders of magnitude; Reduction in C. albicans cell numbers in cross-kingdom biofilm with S. aureus, concentration series ([9]; peptoid 10-100 μM, PMA-qPCR): the greatest reduction in cell numbers; Reduction in S. aureus cell numbers in cross-kingdom biofilm, concentration series ([10]; peptoid 10-100 μM, PMA-qPCR): the greatest reduction in cell numbers; Reduction in C. albicans cell number in mixed biofilm with E. coli (PMA-qPCR) ([11]; peptoid 100 μM, 24 h, n=3): the most active; Reduction in C. albicans cell numbers in cross-kingdom biofilm with E. coli, concentration series ([11]; peptoid 10-100 μM, PMA-qPCR): the greatest reduction in cell numbers; Reduction in E. coli cell number in mixed biofilm with C. albicans (PMA-qPCR) ([12]; peptoid 100 μM, 24 h, n=3): the most active; Reduction in E. coli cell numbers in cross-kingdom biofilm, concentration series ([12]; peptoid 10-100 μM, PMA-qPCR): the greatest reduction in cell numbers
(NLysNspeNspe)3 [Peptoid 5] | amongst the most efficacious | amongst the most efficacious | amongst the most efficacious | significant reduction in cell number; also recorded: the greatest reduction in cell number | significant reduction in cell number |  | ~100 | > 100 | negligible toxicity | > 100 | negligible toxicity | Reduction in S. aureus cell number in mixed biofilm with C. albicans (PMA-qPCR) ([10]; peptoid 100 μM, 24 h, n=3): better able to reduce the cell count
(NaeNpheNphe)4 [Peptoid 7] | amongst the most efficacious | amongst the most efficacious | amongst the most efficacious | significant reduction in cell number | significant reduction in cell number | the greatest reduction | ~100 | > 100 | negligible toxicity | > 100 | negligible toxicity | 
CC[C@H](C)[C@H](NC(=O)[C@H](CCCCN)NC(=O)[C@H](CCC(=O)O)NC(=O)[C@H](CCCCN)NC(=O)[C@H](CO)NC(=O)[C@H](CCCCN)NC(=O)[C@H](CCCNC(=N)N)NC(=O)[C@H](Cc1ccccc1)NC(=O)[C@H](Cc1ccccc1)NC(=O)[C@H](CC(=O)O)NC(=O)CNC(=O)[C@H](CC(C)C)NC(=O)[C@@H](N)CC(C)C)C(=O)NCC(=O)N[C@@H](CCCCN)C(=O)N[C@@H](CCC(=O)O)C(=O)N[C@@H](Cc1ccccc1)C(=O)N[C@@H](CCCCN)C(=O)N[C@@H](CCCNC(=N)N)C(=O)N[C@H](C(=O)N[C@H](C(=O)N[C@@H](CCC(N)=O)C(=O)N[C@@H](CCCNC(=N)N)C(=O)N[C@H](C(=O)N[C@@H](CCCCN)C(=O)N[C@@H](CC(=O)O)C(=O)N[C@@H](Cc1ccccc1)C(=O)N[C@@H](CC(C)C)C(=O)N[C@@H](CCCNC(=N)N)C(=O)N[C@@H](CC(N)=O)C(=O)N[C@@H](CC(C)C)C(=O)N[C@H](C(=O)N1CCC[C@H]1C(=O)N[C@@H](CCCNC(=N)N)C(=O)N[C@H](C(=O)N[C@@H](CCC(=O)O)C(=O)N[C@@H](CO)C(=O)O)[C@@H](C)O)C(C)C)[C@@H](C)CC)C(C)C)[C@@H](C)CC [LL‐37] |  |  |  |  |  |  |  |  |  |  |  | Degradation after treatment with trypsin (trypsin): degraded to peptide fragments
